Data reported in patent US20130196960A1, “Cannabinoid Receptor Agonists” (Ironwood Pharmaceuticals, Inc., priority 2010, published 2013).
Like-named read-outs stand apart in the source and are kept apart here.

How the values were obtained:
[1] = target: human CB1 (Homo sapiens, UniProt P21554); assay: Human CB1 cannabinoid receptor radioligand binding assay ([3H]-CP 55,940 displacement, HEK-293 membranes)
Source text: (§1) cDNA expression clones for human CB1 (hCB1, Genbank Accession No. AY225225) and human CB2 (hCB2, Genbank Accession No. AY242132) expressed in vector pcDNA3.1+ were purchased from UMR cDNA Resource Center, Rolla, Mo. (Clone ID CNR01L000 for hCB1; CNR0200000 for hCB2).
(§2) Stable, HEK-293-derived cell lines that recombinantly express hCB1 or hCB2 were established. In brief, the clone hCB1 (CNR1L) or hCB2 (CNR2) was transfected into human embryonic kidney cells (HEK-293) using Lipofectamine 2000 (Gibco, Cat#11668-019) according to the manufacturer's protocol. Transfected clones were isolated by single colony purification and clones were screened for receptor expression using a whole cell, 3H-CP 55,940 radioligand binding assay. HEK-293 stable cells were maintained in Dulbecco's modified Eagles medium (DMEM) containing 10% fetal bovine serum, 2 mM L-glutamine and 0.5 mg/mL G-418.
(§3) Membranes were isolated from transfected cells as follows. Monolayers of cultured cells were washed twice with phosphate-buffered saline (PBS). Cells were scraped into 20 mM HEPES, pH 7.4, 10 mM EDTA containing complete cocktail protease inhibitors (Roche, Catalog #11 697 498 001), and were homogenized by an electric-powered mechanical probe homogenizer (Omni GLH; probe G7-195S) for 40 seconds at 7000 rpm. Homogenates were centrifuged 10 minutes at 1000×g at 4° C. The supernatant was collected and was centrifuged for 1 hour at 40,000×g. The supernatant was then decanted and the resulting pellet was re-suspended in 20 mM HEPES, pH 7.4, 5 mM MgCl2, 1 mM EDTA, 10% sucrose with complete cocktail protease inhibitors. Protein concentration of membrane suspensions were measured by Bradford Protein Assay using bovine serum albumin as the standard (BioRad catalog #500-0006). Protein concentrations of membrane suspensions were adjusted with the final buffer in the range of 5 to 10 mg/mL and were stored at −80° C. until further use.
(§4) Radioligand binding assays were performed by incubating membranes (2-10 μg protein) prepared from HEK-293 cells expressing recombinant human cannabinoid receptors, CB1 or CB2, at room temperature with 0.5 nM cannabinoid receptor agonist, [3H]-CP 55,940 (Perkin Elmer, catalog #NET1051) in 0.2 mL of binding buffer (50 mM Tris-HCl, pH 7.5, 5 mM MgCl2, 2.5 mM EDTA) and 0.1% fatty acid free bovine serum albumin (Sigma Cat. #A0821) for 90 minutes. A rapid filtration technique using Millipore FB filter plates (Catalog #MADVNOB) and filtration apparatus (Millipore system Catalog MAVM0960R) with vacuum aspiration was used to harvest and rinse labeled membranes (8 times with 0.2 mL of chilled binding buffer). The radioactivity bound to the filters was counted with 0.05 mL of liquid scintillant (UltraGold MV, PerkinElmer catalog #6013159) in a scintillation counter (Perkin Elmer Microbeta instrument). Nonspecific binding was determined in the presence of unlabeled 1 μM CP 55,940 (Sigma Aldrich, catalog #C1112). Binding data were analyzed using GraphPad Prism (GraphPad Software, Inc. San Diego, Calif.).

[2] = target: T1, human CB2 (Homo sapiens, UniProt P34972); assay: Human CB2 cannabinoid receptor radioligand binding assay ([3H]-CP 55,940 displacement, HEK-293 membranes)
T1 sequence (P34972 whole entry): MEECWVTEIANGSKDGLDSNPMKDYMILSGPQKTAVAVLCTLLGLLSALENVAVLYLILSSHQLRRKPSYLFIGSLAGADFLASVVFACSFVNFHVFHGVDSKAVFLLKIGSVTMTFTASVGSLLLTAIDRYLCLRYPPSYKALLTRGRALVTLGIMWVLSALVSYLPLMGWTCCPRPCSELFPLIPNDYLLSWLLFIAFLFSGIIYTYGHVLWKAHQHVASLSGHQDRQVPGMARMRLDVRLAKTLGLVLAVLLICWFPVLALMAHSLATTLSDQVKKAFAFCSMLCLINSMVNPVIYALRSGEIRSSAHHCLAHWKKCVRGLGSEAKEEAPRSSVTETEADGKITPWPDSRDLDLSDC
Source text: as §1, §2, §3, §4

[3] = target: T1, human CB2; assay: 35S GTPγS binding functional assay, agonist mode, hCB2 HEK-293 membranes; assay type: biochemical
Description: Functional assays which monitor G-protein coupled receptor or downstream cellular responses can be used to characterize potential CB1 receptor and/or CB2 receptor agonist or antagonist activities. Direct activation (or inhibition of activation) can be monitored using a GTPγS assay (membrane-based assay) or cAMP assay (whole cell-based assay).
^35S GTPγS binding assays were performed by incubating recombinant cell membranes prepared above (5 μg) in the presence of scintillation proximity assay beads (SPA beads, Catalog #RPNQ0252 GE Healthcare, Buckinghamshire, England) in GTPγS binding buffer [50 mM HEPES (pH 7.4), 100 mM NaCl, 5 mM MgCl2, 0.001% saponin (Sigma catalog #S4521)] supplemented with 20 uM GDP (Sigma catalog #G7127) in the presence or absence of test compound. The reaction was carried out in 96-well microplates with 0.1 nM [^35S]GTPγS (specific activity=1250 Ci/mmol; Perkin Elmer catalog #NEG030X250UC) in a final volume of 100 uL. After a 90 min room temperature incubation, the reaction was analyzed using a scintillation counter (Perkin Elmer Microbeta instrument). Binding data were analyzed using GraphPad Prism.

[4] = tested on: mouse; assay: Phenylbenzoquinone-induced (PBQ) writhing model; details: dose 30 (unit not given), route IP, P < 0.001
[5] = read-out: hCB1 IC50 (CP displ, nM, HEK), CP 55,940 displacement, HEK-293 membranes
[6] = read-out: hCB2 IC50 (CP displ, nM, HEK), CP 55,940 displacement, HEK-293 membranes
[7] = GTPγS agonist mode, HEK-293 membranes, read-out: hCB2 EC50 (GTPyS ag, nM, HEK)
[8] = CP 55,940 displacement, HEK-293 membranes, read-out: hCB1 IC50 (CP displ, nM, HEK)
[9] = CP 55,940 displacement, HEK-293 membranes, read-out: hCB2 IC50 (CP displ, nM, HEK)
[10] = read-out: hCB2 EC50 (GTPyS ag, nM, HEK), GTPγS agonist mode, HEK-293 membranes

Sequence of human CB1 (P21554 whole entry): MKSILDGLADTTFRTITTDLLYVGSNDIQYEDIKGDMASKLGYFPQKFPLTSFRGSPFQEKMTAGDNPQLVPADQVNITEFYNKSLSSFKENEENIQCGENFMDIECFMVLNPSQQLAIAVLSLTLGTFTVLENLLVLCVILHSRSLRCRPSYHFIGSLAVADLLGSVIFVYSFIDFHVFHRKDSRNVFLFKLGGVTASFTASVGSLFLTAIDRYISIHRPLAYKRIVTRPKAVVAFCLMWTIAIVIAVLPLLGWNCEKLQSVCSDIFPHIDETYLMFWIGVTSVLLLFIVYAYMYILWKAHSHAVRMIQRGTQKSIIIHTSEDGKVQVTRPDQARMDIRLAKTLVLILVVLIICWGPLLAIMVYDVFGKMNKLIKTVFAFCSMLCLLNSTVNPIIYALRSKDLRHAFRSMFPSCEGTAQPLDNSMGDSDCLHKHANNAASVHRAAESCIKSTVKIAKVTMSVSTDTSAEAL

## Cc1c(C(=O)c2cccc(Cl)c2Cl)c2ccsc2n1CCC1CCN(C)CC1 [Compound I-25]
[1]; [5]
  IC50: > 10000 nM
[2]; [6]
  IC50: > 10000 nM

## Cc1c(C(=O)c2cccc(Cl)c2Cl)c2ccsc2n1CCN1CCCCC1 [Compound I-17]
[1]; [5]
  IC50: 1000 to 10000 nM
[3]; [7]
  EC50: < 100 nM
[2]; [6]
  IC50: < 100 nM

## Cc1c(C(=O)c2cccc(Cl)c2)c2ccsc2n1CCN1CCOCC1 [Compound I-12]
[1]; [5]
  IC50: 1000 to 10000 nM
[2]; [6]
  IC50: 1000 to 10000 nM

## Cc1c(C(=O)c2cccc(F)c2F)c2ccsc2n1CCN1CCOCC1 [Compound I-11]
[1]; [5]
  IC50: > 10000 nM
[3]; [7]
  EC50: 100 to 1000 nM
[2]; [6]
  IC50: 1000 to 10000 nM

## Cc1c(C(=O)c2cccc(Cl)c2Cl)c2ccsc2n1CCC1CCN(C(=O)OC(C)(C)C)CC1 [Compound I-22]
[1]; [8]
  IC50: > 10000 nM
[2]; [9]
  IC50: > 10000 nM

## Cc1c(C(=O)c2cccnc2Cl)c2ccsc2n1CCN1CCOCC1 [Compound I-28]
[1]; [5]
  IC50: > 10000 nM
[2]; [6]
  IC50: 1000 to 10000 nM

## Cc1c(C(=O)c2ccc(Cl)cc2Cl)c2ccsc2n1CCN1CCOCC1 [Compound I-15]
[1]; [5]
  IC50: > 10000 nM
[3]; [7]
  EC50: 100 to 1000 nM
[2]; [6]
  IC50: 100 to 1000 nM

## CCCn1c(C)c(C(=O)c2cccc(Cl)c2Cl)c2scnc21 [Compound I-4]
[1]; [5]
  IC50: > 10000 nM
[3]; [7]
  EC50: < 100 nM
[2]; [6]
  IC50: 100 to 1000 nM

## CCCOc1ccccc1C(=O)c1c(C)n(CCN2CCOCC2)c2sccc12 [Compound I-27]
[1]; [5]
  IC50: > 10000 nM
[2]; [6]
  IC50: 1000 to 10000 nM

## Cc1c(C(=O)C2C(C)(C)C2(C)C)c2ccsc2n1CCN1CCOCC1 [Compound I-8]
[1]; [5]
  IC50: 1000 to 10000 nM
[3]; [7]
  EC50: < 100 nM
[2]; [6]
  IC50: 100 to 1000 nM

## Cc1c(C(=O)c2cccc(Cl)c2Cl)c2ccsc2n1CCN1CCOCC1 [Compound I-1, (2,3-dichlorophenyl)(5-methyl-6-(2-morpholinoethyl)-6H-thieno[2,3-b]pyrrol-4-yl)methanone]
[4]
  Number of Writhes: 1.5 ± 0.79
[1]
  IC50: 1000 to 10000 nM
[3]
  EC50: < 100 nM
[2]
  IC50: < 100 nM

## Cc1c(C(=O)c2cccc(Cl)c2Cl)c2sccc2n1CCN1CCOCC1 [Compound I-5]
[1]; [5]
  IC50: 1000 to 10000 nM
[3]; [7]
  EC50: < 100 nM
[2]; [6]
  IC50: < 100 nM

## Cc1c(C(=O)c2cccc(Cl)c2Cl)c2scnc2n1CCN1CCOCC1 [Compound I-3]
[1]; [5]
  IC50: 1000 to 10000 nM
[3]; [7]
  EC50: < 100 nM
[2]; [6]
  IC50: < 100 nM

## Cc1c(C(=O)c2cccc3c2OCC3)c2ccsc2n1CCN1CCOCC1 [Compound I-14]
[1]; [5]
  IC50: 1000 to 10000 nM
[3]; [7]
  EC50: 100 to 1000 nM
[2]; [6]
  IC50: 100 to 1000 nM

## Cc1c(C(=O)c2cccc(Cl)c2Cl)c2cc(Cl)sc2n1CCN1CCOCC1 [Compound I-19]
[1]; [5]
  IC50: 1000 to 10000 nM
[3]; [7]
  EC50: 100 to 1000 nM
[2]; [6]
  IC50: < 100 nM

## CCS(=O)(=O)n1c(C)c(C(=O)c2cccc(Cl)c2Cl)c2ccsc21 [Compound I-21]
[1]; [8]
  IC50: > 10000 nM
[2]; [9]
  IC50: 1000 to 10000 nM

## Cc1c(C(=O)c2cccc(Cl)c2Cl)c2ccsc2n1CC1CCCCN1C (centres unmarked) [Compound I-20]
[1]; [5]
  IC50: < 100 nM
[3]; [7]
  EC50: < 100 nM
[2]; [6]
  IC50: < 100 nM

## Cc1c(C(=O)C2CCCCC2)c2ccsc2n1CCN1CCOCC1 [Compound I-24]
[1]; [5]
  IC50: 1000 to 10000 nM
[3]; [7]
  EC50: 100 to 1000 nM
[2]; [6]
  IC50: 100 to 1000 nM

## Cc1c(C(=O)c2cccc(Cl)c2Cl)c2ccsc2n1CCC1CCOCC1 [Compound I-9]
[1]; [5]
  IC50: 100 to 1000 nM
[3]; [7]
  EC50: < 100 nM
[2]; [6]
  IC50: < 100 nM

## COCCn1c(C)c(C(=O)c2cccc(Cl)c2Cl)c2ccsc21 [Compound I-10]
[1]; [5]
  IC50: > 10000 nM
[3]; [7]
  EC50: 100 to 1000 nM
[2]; [6]
  IC50: 100 to 1000 nM

## Cc1c(C(=O)c2cccc(Cl)c2Cl)c2ccsc2n1CC1CCOCC1 [Compound I-23]
[1]; [5]
  IC50: 1000 to 10000 nM
[3]; [7]
  EC50: < 100 nM
[2]; [6]
  IC50: < 100 nM

## CCCn1c(C)c(C(=O)c2ccccc2)c2ccsc21 [Compound I-7]
[1]; [8]
  IC50: > 10000 nM
[2]; [9]
  IC50: > 10000 nM

## Cc1c(C(=O)c2cccc(Cl)c2Cl)c2ccsc2n1CC(=O)N1CCOCC1 [Compound I-18]
[1]; [5]
  IC50: > 10000 nM
[3]; [10]
  EC50: 100 to 1000 nM
[2]; [6]
  IC50: 100 to 1000 nM

## CCn1c(C)c(C(=O)c2cccc(Cl)c2Cl)c2ccsc21 [Compound I-30]
[1]; [5]
  IC50: > 10000 nM
[3]; [10]
  EC50: 100 to 1000 nM
[2]; [6]
  IC50: 1000 to 10000 nM

## CCCn1c(C)c(C(=O)c2cccc(Cl)c2Cl)c2ccsc21 [Compound I-2]
[1]; [5]
  IC50: > 10000 nM
[3]; [7]
  EC50: < 100 nM
[2]; [6]
  IC50: 100 to 1000 nM

## Cc1c(C(=O)c2ccccc2)c2ccsc2n1CCN1CCOCC1 [Compound I-31]
[1]; [5]
  IC50: > 10000 nM
[2]; [6]
  IC50: > 10000 nM
